Test results reported in the NIST ThermoML archive (doi:10.1016/j.jct.2006.01.015).
± gives the expanded uncertainty stated by the source.

Assay: xn = mol fraction of the nth substance listed
Settings: 101 kPa, Liquid

CNC(C)=O [N-methylacetamide] + CC#N
mass density [kg/m3]
Settings | 293.15 K | 298.15 K | 303.15 K | 308.15 K | 313.15 K | 318.15 K
x2 = 0 | 958.4 ± 0.9 | 954.2 ± 1 | 950.1 ± 1 | 945.9 ± 1 | 941.7 ± 1.1 | 937.6 ± 1.1
x2 = 0.0637 | 951.5 ± 0.9 | 947.2 ± 1 | 942.9 ± 1 | 938.6 ± 1 | 934.3 ± 1.1 | 930 ± 1.1
x2 = 0.1232 | 944.8 ± 0.9 | 940.3 ± 0.9 | 935.9 ± 1 | 931.4 ± 1 | 927 ± 1.1 | 922.6 ± 1.1
x2 = 0.1926 | 936.5 ± 0.9 | 931.9 ± 0.9 | 927.3 ± 1 | 922.8 ± 1 | 918.2 ± 1.1 | 913.7 ± 1.1
x2 = 0.2665 | 927.2 ± 0.9 | 922.5 ± 0.9 | 917.8 ± 1 | 913.1 ± 1 | 908.4 ± 1 | 903.7 ± 1.1
x2 = 0.3244 | 919.5 ± 0.9 | 914.7 ± 0.9 | 909.9 ± 1 | 905.1 ± 1 | 900.3 ± 1 | 895.5 ± 1.1
x2 = 0.3702 | 913.2 ± 0.9 | 908.3 ± 0.9 | 903.4 ± 0.9 | 898.5 ± 1 | 893.6 ± 1 | 888.7 ± 1.1
x2 = 0.4365 | 903.5 ± 0.8 | 898.5 ± 0.9 | 893.5 ± 0.9 | 888.5 ± 1 | 883.5 ± 1 | 878.5 ± 1
x2 = 0.4925 | 894.7 ± 0.8 | 889.6 ± 0.9 | 884.5 ± 0.9 | 879.4 ± 1 | 874.3 ± 1 | 869.3 ± 1
x2 = 0.5412 | 886.6 ± 0.8 | 881.4 ± 0.9 | 876.2 ± 0.9 | 871.1 ± 0.9 | 865.9 ± 1 | 860.8 ± 1
x2 = 0.58 | 879.8 ± 0.8 | 874.6 ± 0.9 | 869.4 ± 0.9 | 864.2 ± 0.9 | 859 ± 1 | 853.8 ± 1
x2 = 0.6301 | 870.6 ± 0.8 | 865.3 ± 0.8 | 860.1 ± 0.9 | 854.9 ± 0.9 | 849.6 ± 1 | 844.4 ± 1
x2 = 0.6766 | 861.6 ± 0.8 | 856.3 ± 0.8 | 851 ± 0.9 | 845.7 ± 0.9 | 840.4 ± 0.9 | 835.1 ± 1
x2 = 0.7613 | 843.8 ± 0.8 | 838.4 ± 0.8 | 833 ± 0.8 | 827.7 ± 0.9 | 822.3 ± 0.9 | 816.9 ± 1
x2 = 0.8305 | 827.8 ± 0.7 | 822.4 ± 0.8 | 817 ± 0.8 | 811.6 ± 0.9 | 806.2 ± 0.9 | 800.8 ± 0.9
x2 = 0.9203 | 804.8 ± 0.7 | 799.5 ± 0.8 | 794.2 ± 0.8 | 788.8 ± 0.8 | 783.4 ± 0.9 | 778 ± 0.9

CC#N [acetonitrile] + CN(C)C=O
mass density [kg/m3]
Settings | 293.15 K | 298.15 K | 303.15 K | 308.15 K | 313.15 K | 318.15 K
x1 = 0.0654 | 942 ± 0.9 | 937.5 ± 0.9 | 933 ± 1 | 928.6 ± 1 | 924.1 ± 1 | 919.6 ± 1.1
x1 = 0.1303 | 934.6 ± 0.9 | 930.1 ± 0.9 | 925.6 ± 1 | 921.2 ± 1 | 916.7 ± 1 | 912.2 ± 1.1
x1 = 0.1912 | 927.4 ± 0.9 | 922.9 ± 0.9 | 918.4 ± 0.9 | 914 ± 1 | 909.4 ± 1 | 904.9 ± 1.1
x1 = 0.2586 | 919 ± 0.9 | 914.5 ± 0.9 | 909.9 ± 0.9 | 905.5 ± 1 | 900.9 ± 1 | 896.4 ± 1.1
x1 = 0.3204 | 910.9 ± 0.8 | 906.3 ± 0.9 | 901.7 ± 0.9 | 897.2 ± 1 | 892.6 ± 1 | 888.1 ± 1
x1 = 0.3851 | 902 ± 0.8 | 897.4 ± 0.9 | 892.7 ± 0.9 | 888.2 ± 1 | 883.6 ± 1 | 879 ± 1
x1 = 0.4596 | 891.2 ± 0.8 | 886.5 ± 0.9 | 881.8 ± 0.9 | 877.2 ± 0.9 | 872.5 ± 1 | 867.9 ± 1
x1 = 0.5125 | 883.1 ± 0.8 | 878.4 ± 0.8 | 873.6 ± 0.9 | 869 ± 0.9 | 864.2 ± 1 | 859.5 ± 1
x1 = 0.5925 | 870 ± 0.8 | 865.2 ± 0.8 | 860.4 ± 0.9 | 855.7 ± 0.9 | 850.9 ± 1 | 846.1 ± 1
x1 = 0.6402 | 861.7 ± 0.8 | 856.9 ± 0.8 | 852 ± 0.9 | 847.3 ± 0.9 | 842.5 ± 0.9 | 837.6 ± 1
x1 = 0.6899 | 852.6 ± 0.8 | 847.8 ± 0.8 | 842.9 ± 0.9 | 838.1 ± 0.9 | 833.2 ± 0.9 | 828.3 ± 1
x1 = 0.731 | 844.7 ± 0.8 | 839.8 ± 0.8 | 834.9 ± 0.8 | 830 ± 0.9 | 825.1 ± 0.9 | 820.2 ± 1
x1 = 0.7736 | 836.1 ± 0.8 | 831.1 ± 0.8 | 826.1 ± 0.8 | 821.2 ± 0.9 | 816.3 ± 0.9 | 811.4 ± 1
x1 = 0.8522 | 818.9 ± 0.7 | 813.9 ± 0.8 | 808.9 ± 0.8 | 803.9 ± 0.9 | 798.9 ± 0.9 | 793.9 ± 0.9
x1 = 0.9359 | 798.9 ± 0.7 | 793.8 ± 0.7 | 788.7 ± 0.8 | 783.6 ± 0.8 | 778.5 ± 0.9 | 773.4 ± 0.9
x1 = 1 | 782.1 ± 0.7 | 776.8 ± 0.7 | 771.5 ± 0.8 | 766.3 ± 0.8 | 761 ± 0.8 | 755.7 ± 0.9
